Results on 25 compounds are retold here after PMC8318836 (Bioorganic Chemistry, 2021).

What is called EC50 is the concentration giving half of the maximal effect. Usually CC50 stands for the concentration that lowers cell viability or growth by half. High values mean better tolerance by the cells, low ones harm at low concentration.

Series [1] deals with SARS-CoV-2 pseudovirus. Type of series: cell-based. The following applies: for EC50: read-out: EC50-SARS-CoV-2.
In series [2] the test system is VSV G pseudovirus. Type of series: cell-based, vesicular stomatitis virus (VSV). The following applies: read-out: EC50-VSV.
The test system of series [3] is Huh 7 cells. The following applies: concentration of 50% cellular toxicity in Huh 7 cells.
The test system of series [4] is SARS-CoV-2 pseudovirus. The series is described as follows: Single-cycle time-of-addition experiment on SARS-CoV-2 pseudovirus. The class given is cell-based. The following applies: 25 µM, Huh 7 cells.

Regarding `O=C(CNc1ccc(Cl)cc1)N1CCCC2=CC3CC(CN4CCCCC34)C21` (stereo not shown) [14d, 12N-N′-p-Chlorophenylaminoacetyl aloperine], the EC50 is 61.3 µM in series [1] and 163 µM in series [2]. For the same compound, the 50% cytotoxic concentration (CC50) in series [3] was over 267 µM.

Consider `O=C(CN1CCCC2=CC3CC(CN4CCCCC34)C21)Nc1ccc(I)cc1` (stereo not shown) [11c, 12N-N′-p-Iodophenylcarbamoylmethyl aloperine], for which the concentration for a half-maximal effect (EC50) in series [1] stood at 29.5 µM; in series [2], 47.8 µM. The 50% cytotoxic concentration (CC50) in series [3] stood at 124 µM.

With `O=C(CNc1ccc(Cl)cc1Cl)N1CCCC2=CC3CC(CN4CCCCC34)C21` (stereo not shown) [14k, 12N-N′-(2,4-Dichlorophenylamino)acetyl aloperine], the EC50 in series [1] worked out at 17.8 µM; in series [2], 36.2 µM. This compound gave a CC50 in series [3] of 65.8 µM.

`O=C(CNc1ccc(Br)cc1)N1CCCC2=CC3CC(CN4CCCCC34)C21` (stereo not shown) [14e, 12N-N′-p-Bromophenylaminoacetyl aloperine]: the 50% effective concentration (EC50) is 37.3 µM in series [1] and 85.4 µM in series [2]. In addition, the 50% cytotoxic concentration (CC50) in series [3] was determined as 180 µM.

Turning to `COc1cc(NCC(=O)N2CCCC3=CC4CC(CN5CCCCC45)C32)cc(OC)c1` (stereo not shown) [14n, 12N-N′-(3,5-Dimethoxyphenylamino)acetyl aloperine], the concentration for a half-maximal effect (EC50) in series [1] and in series [2] was over 267 µM throughout. The compound further showed a CC50 in series [3] of over 267 µM.

Regarding `COc1cccc(NCC(=O)N2CCCC3=CC4CC(C5CCCCN5C4)C32)c1` (stereo not shown) [14i, 12N-N′-m-Methoxyphenylaminoacetyl aloperine], the concentration giving a half-maximal response (EC50) in series [1] and in series [2] was over 267 µM in each case. In series [3], this compound yielded a CC50 of over 267 µM.

Consider `O=C(CN1CCCC2=CC3CC(C4CCCCN4C3)C21)Nc1ccc(Cl)cc1Cl` (stereo not shown) [11d, 12N-N′-(2,4-Dichlorophenyl)carbamoylmethyl aloperine], for which the half-maximal effective concentration (EC50) in series [1] was determined as 54.8 µM; in series [2], 70.5 µM. The CC50 in series [3] was 167 µM.

In the case of `O=C(Nc1ccc(F)cc1F)N1CCCC2=CC3CC(CN4CCCCC34)C21` (stereo not shown) [15a, 12N-N′-(2,4-Difluorophenyl)carbamoyl aloperine], the EC50 came to 195 µM in series [1] and 139 µM in series [2]. Further, the CC50 in series [3] was over 267 µM.

For the compound `O=C(CN1CCCC2=CC3CC(C4CCCCN4C3)C21)Nc1ccc2ccccc2c1` (stereo not shown) [11p, 12N-N′-(2-Naphthyl)carbamoylmethyl aloperine], the EC50 in series [1] turned out to be 37.1 µM; in series [2], 43.5 µM. For the same compound, the half-maximal cytotoxic concentration (CC50) in series [3] stood at 96.7 µM.

`O=C(CN1CCCC2=CC3CC(C4CCCCN4C3)C21)Nc1cc(Cl)cc(C(F)(F)F)c1` (stereo not shown) [11k, 12N-N′-(3-Chloro-5-trifluoromethylphenyl)carbamoylmethyl aloperine]: in series [1], the “anti-SARS-CoV-2 activity compared to lead 1” value is on record as “slightly elevated activity” and the 50% effective concentration (EC50) stood at 10.4 µM. Further, in series [2], the EC50 stood at 17.5 µM. In series [3], this compound registered a CC50 of 57.1 µM.

Turning to `O=C(CN1CCCC2=CC3CC(CN4CCCCC34)C21)Nc1ccc2ccccc2n1` (stereo not shown) [11q, 12N-N′-(2-Quinolyl)carbamoylmethyl aloperine], the values for the EC50 in series [1] and in series [2] were 67.4 µM and 120 µM, respectively. This compound also showed a CC50 in series [3] of over 267 µM.

On to `O=C(Nc1cc(C(F)(F)F)cc(C(F)(F)F)c1)N1CCCC2=CC3CC(CN4CCCCC34)C21` (stereo not shown) [15c, 12N-N′-(3,5-Ditrifluoromethylphenyl)carbamoyl aloperine], for which the EC50 is 11.5 µM in series [1] and 14.9 µM in series [2]. For the same compound, the CC50 in series [3] is 53.9 µM.

Turning to `Cc1ccc(NC(=O)CN2CCCC3=CC4CC(CN5CCCCC45)C32)cc1C` (stereo not shown) [11n, 12N-N′-(3,4-Dimethylphenyl)carbamoylmethyl aloperine], the EC50 was determined as 70.8 µM in series [1] and 108 µM in series [2]. In series [3], the half-maximal cytotoxic concentration (CC50) was over 267 µM.

`CCCNC(=O)[C@H]1O[C@@H]1C(=O)N[C@H](C(=O)N1CCC[C@H]1C(=O)O)[C@@H](C)CC` [CA-074, reference compound]: the EC50 in series [1] worked out at 2.7 µM; in series [2] it was 10.5 µM. Moreover, in series [4] (added 1 h post infection), the “inhibition rate, process d” value is recorded as 93%. Further, the “inhibition rate, process b” value in series [4] (added during pseudovirus infection at 0 °C) came to 77%. Further, the “inhibition rate, process a” value in series [4] (added during pseudovirus infection at 37 °C) is reported as 87%. For the same compound, the CC50 in series [3] worked out at 231 µM.

`O=C(CNc1ccccc1)N1CCCC2=CC3CC(CN4CCCCC34)C21` (stereo not shown) [14a, 12N-N′-Phenylaminoacetyl aloperine]: the EC50 in series [1] and in series [2] was over 267 µM each time. This compound also displayed a CC50 in series [3] of over 267 µM.

Take `Cc1cc(Cl)ccc1NC(=O)CN1CCCC2=CC3CC(C4CCCCN4C3)C21` (stereo not shown) [11j, 12N-N′-(4-Chloro-2-methylphenyl)carbamoylmethyl aloperine]: the EC50 in series [1] stood at 107 µM; in series [2], 75.1 µM. In series [3], this compound yielded a CC50 of over 267 µM.

Take `Cc1cc(C)cc(NCC(=O)N2CCCC3=CC4CC(CN5CCCCC45)C32)c1` (stereo not shown) [14m, 12N-N′-(3,5-Dimethylphenylamino)acetyl aloperine]: the 50% effective concentration (EC50) in series [1] and in series [2] was over 267 µM each time. In addition, the CC50 in series [3] is over 267 µM.

For `O=C(CNc1cc(C(F)(F)F)cc(C(F)(F)F)c1)N1CCCC2=CC3CC(CN4CCCCC34)C21` (stereo not shown) [14o, 12N-N′-(3,5-Ditrifluoromethylphenylamino)acetyl aloperine], the concentration for a half-maximal effect (EC50) in series [1] was found to be 37.6 µM; in series [2] it was 48.3 µM. In series [3], this compound gave a CC50 of 113 µM.

As for `O=C(CN1CCCC2=CC3CC(C4CCCCN4C3)C21)Nc1cc(Br)ccc1Cl` (stereo not shown) [11g, 12N-N′-(5-Bromo-2-chlorophenyl)carbamoylmethyl aloperine], the EC50 in series [1] was found to be 90.3 µM; in series [2] it was 77.5 µM. In addition, the CC50 in series [3] was over 267 µM.

With `O=C(CNc1ccc(F)cc1)N1CCCC2=CC3CC(CN4CCCCC34)C21` (stereo not shown) [14b, 12N-N′-p-Fluorophenylaminoacetyl aloperine], the EC50 in series [1] was 177 µM; in series [2], over 267 µM. Also, the cytotoxic concentration (CC50) in series [3] is over 267 µM.

Regarding `O=C(CNc1cccc2ccccc12)N1CCCC2=CC3CC(C4CCCCN4C3)C21` (stereo not shown) [14p, 12 N-N′-(1-Naphthylamino)acetyl aloperine], the EC50 is 73.6 µM in series [1] and 125 µM in series [2]. The compound further yielded a cytotoxic concentration (CC50) in series [3] of 199 µM.

Turning to `O=C(CNc1ccc2ccccc2c1)N1CCCC2=CC3CC(CN4CCCCC34)C21` (stereo not shown) [14q, 12N-N′-(2-Naphthylamino)acetyl aloperine], the half-maximal effective concentration (EC50) in series [1] turned out to be 87.2 µM; in series [2] it was 108 µM. The half-maximal cytotoxic concentration (CC50) in series [3] was 224 µM.

Consider `O=C(CNc1cccc(C(F)(F)F)c1)N1CCCC2=CC3CC(CN4CCCCC34)C21` (stereo not shown) [14h, 12N-N′-m-Trifluoromethylphenylaminoacetyl aloperine], for which the concentration for a half-maximal effect (EC50) in series [1] stood at 69.2 µM; in series [2], 134 µM. This compound also yielded a 50% cytotoxic concentration (CC50) in series [3] of over 267 µM.

Consider `O=C(CNc1ccc(Cl)c(Cl)c1)N1CCCC2=CC3CC(C4CCCCN4C3)C21` (stereo not shown) [14l, 12N-N′-(3,4-Dichlorophenylamino)acetyl aloperine], for which the half-maximal effective concentration (EC50) in series [1] was found to be 15.8 µM; in series [2] it was 35.9 µM. In addition, in series [3], the cytotoxic concentration (CC50) is 63 µM.

`O=C(CN1CCCC2=CC3CC(CN4CCCCC34)C21)Nc1cc(C(F)(F)F)cc(C(F)(F)F)c1` (stereo not shown) [11o, 12N-N′-(3,5-Ditrifluoromethylphenyl)carbamoylmethyl aloperine]: the values for the 50% effective concentration (EC50) in series [1] and in series [2] were 17 µM and 21.9 µM, respectively. Further, in series [3], the CC50 is 71 µM.
